Experimental data from patent US12516056B2, “Compounds for inhibition of janus kinase 1” (MANKIND PHARMA LTD., priority 2019, dated 2026).

Columns and labels:
[1] = biological target: T1, Recombinant JAK1 (Homo sapiens, UniProt P23458); experiment: JAK biochemical assay (LANCE Ultra TR-FRET), JAK1; details: recombinant JAK1, TR-FRET; read-out: Biochemical Assay (μM) JAK1
T1 construct: purchased Carna Biosciences
In short: (§1)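 Kinase reactions ran in buffer of 50 mM HEPES pH 7.5 with 1 mM EGTA, 10 mM MgCl2, 2 mM DTT and 0.01% Tween-20, using recombinant enzyme. Phosphorylated ULight substrate was detected by TR-FRET, and compound effect expressed as % inhibition against vehicle.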

[2] = biological target: T2, Recombinant JAK2 (Homo sapiens, UniProt O60674); experiment: JAK biochemical assay (LANCE Ultra TR-FRET), JAK2; details: recombinant JAK2, TR-FRET; read-out: Biochemical Assay (μM) JAK2
T2 construct: purchased Carna Biosciences
T2 sequence (O60674 whole entry): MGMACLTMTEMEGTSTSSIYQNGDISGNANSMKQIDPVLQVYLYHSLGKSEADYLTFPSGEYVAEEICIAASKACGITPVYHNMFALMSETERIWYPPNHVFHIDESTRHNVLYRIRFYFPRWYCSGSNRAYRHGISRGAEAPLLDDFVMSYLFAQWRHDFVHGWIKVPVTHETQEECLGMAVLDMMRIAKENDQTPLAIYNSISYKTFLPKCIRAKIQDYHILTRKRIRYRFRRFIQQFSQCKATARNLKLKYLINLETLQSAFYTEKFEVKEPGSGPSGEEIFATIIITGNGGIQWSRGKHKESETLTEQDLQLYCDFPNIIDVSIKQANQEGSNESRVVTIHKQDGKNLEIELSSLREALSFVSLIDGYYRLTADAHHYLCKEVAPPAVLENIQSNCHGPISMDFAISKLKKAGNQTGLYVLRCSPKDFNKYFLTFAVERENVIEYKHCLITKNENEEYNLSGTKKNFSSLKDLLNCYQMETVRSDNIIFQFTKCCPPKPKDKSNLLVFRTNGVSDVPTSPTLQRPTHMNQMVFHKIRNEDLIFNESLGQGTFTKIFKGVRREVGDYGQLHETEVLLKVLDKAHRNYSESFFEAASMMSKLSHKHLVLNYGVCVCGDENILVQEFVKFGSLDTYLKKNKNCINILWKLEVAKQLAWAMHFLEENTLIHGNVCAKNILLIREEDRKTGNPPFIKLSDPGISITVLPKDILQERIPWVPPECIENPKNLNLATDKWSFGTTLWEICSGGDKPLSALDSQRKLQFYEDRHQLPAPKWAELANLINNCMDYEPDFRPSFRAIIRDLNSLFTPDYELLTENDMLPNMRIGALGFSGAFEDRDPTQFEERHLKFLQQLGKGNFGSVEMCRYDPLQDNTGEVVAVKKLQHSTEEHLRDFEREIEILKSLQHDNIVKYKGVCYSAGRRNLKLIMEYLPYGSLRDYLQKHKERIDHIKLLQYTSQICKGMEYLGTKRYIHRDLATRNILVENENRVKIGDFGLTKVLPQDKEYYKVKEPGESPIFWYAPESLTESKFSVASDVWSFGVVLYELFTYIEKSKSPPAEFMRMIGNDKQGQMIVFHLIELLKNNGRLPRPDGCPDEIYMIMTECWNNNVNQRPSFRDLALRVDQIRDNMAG
In short: as §1

[3] = biological target: T3, Recombinant JAK3 (Homo sapiens, UniProt P52333); experiment: JAK biochemical assay (LANCE Ultra TR-FRET), JAK3; details: recombinant JAK3, TR-FRET; read-out: Biochemical Assay (μM) JAK3
T3 construct: purchased Carna Biosciences
T3 sequence (P52333 1-1124): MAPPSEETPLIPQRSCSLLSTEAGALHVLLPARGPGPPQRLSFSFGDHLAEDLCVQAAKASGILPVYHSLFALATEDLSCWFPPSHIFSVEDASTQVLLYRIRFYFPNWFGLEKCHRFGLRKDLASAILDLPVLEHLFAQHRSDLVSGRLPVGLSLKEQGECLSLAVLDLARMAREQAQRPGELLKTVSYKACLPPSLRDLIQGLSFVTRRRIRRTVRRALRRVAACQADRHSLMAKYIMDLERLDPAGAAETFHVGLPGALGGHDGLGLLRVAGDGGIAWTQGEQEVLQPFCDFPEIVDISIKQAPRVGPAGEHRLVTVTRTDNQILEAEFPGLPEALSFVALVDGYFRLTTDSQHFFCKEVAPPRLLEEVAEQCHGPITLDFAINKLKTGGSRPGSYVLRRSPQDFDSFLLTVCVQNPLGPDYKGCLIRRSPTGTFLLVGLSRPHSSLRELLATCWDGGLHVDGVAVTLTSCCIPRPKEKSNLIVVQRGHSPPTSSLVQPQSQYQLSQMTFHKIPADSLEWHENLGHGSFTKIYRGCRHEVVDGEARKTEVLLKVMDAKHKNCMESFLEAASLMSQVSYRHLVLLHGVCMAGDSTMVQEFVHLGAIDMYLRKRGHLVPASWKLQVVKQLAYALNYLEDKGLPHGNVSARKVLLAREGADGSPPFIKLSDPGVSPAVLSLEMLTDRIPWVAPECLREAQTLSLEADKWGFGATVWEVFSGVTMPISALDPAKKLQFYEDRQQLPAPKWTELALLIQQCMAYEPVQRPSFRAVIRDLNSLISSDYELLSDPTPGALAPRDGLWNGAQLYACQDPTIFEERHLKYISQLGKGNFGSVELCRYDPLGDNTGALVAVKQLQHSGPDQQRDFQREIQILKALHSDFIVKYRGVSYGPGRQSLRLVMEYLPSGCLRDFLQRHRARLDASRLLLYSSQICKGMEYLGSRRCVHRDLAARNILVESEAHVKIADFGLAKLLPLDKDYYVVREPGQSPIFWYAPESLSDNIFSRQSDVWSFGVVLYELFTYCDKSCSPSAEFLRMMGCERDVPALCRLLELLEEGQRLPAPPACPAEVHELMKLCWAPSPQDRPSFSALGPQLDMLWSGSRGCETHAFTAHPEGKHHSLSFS
In short: as §1

[4] = biological target: T4, Recombinant TYK2 (Homo sapiens, UniProt P29597); experiment: JAK biochemical assay (LANCE Ultra TR-FRET), TYK2; details: recombinant TYK2, TR-FRET; read-out: Biochemical Assay (μM) TYK2
T4 construct: purchased Carna Biosciences
T4 sequence (P29597 whole entry): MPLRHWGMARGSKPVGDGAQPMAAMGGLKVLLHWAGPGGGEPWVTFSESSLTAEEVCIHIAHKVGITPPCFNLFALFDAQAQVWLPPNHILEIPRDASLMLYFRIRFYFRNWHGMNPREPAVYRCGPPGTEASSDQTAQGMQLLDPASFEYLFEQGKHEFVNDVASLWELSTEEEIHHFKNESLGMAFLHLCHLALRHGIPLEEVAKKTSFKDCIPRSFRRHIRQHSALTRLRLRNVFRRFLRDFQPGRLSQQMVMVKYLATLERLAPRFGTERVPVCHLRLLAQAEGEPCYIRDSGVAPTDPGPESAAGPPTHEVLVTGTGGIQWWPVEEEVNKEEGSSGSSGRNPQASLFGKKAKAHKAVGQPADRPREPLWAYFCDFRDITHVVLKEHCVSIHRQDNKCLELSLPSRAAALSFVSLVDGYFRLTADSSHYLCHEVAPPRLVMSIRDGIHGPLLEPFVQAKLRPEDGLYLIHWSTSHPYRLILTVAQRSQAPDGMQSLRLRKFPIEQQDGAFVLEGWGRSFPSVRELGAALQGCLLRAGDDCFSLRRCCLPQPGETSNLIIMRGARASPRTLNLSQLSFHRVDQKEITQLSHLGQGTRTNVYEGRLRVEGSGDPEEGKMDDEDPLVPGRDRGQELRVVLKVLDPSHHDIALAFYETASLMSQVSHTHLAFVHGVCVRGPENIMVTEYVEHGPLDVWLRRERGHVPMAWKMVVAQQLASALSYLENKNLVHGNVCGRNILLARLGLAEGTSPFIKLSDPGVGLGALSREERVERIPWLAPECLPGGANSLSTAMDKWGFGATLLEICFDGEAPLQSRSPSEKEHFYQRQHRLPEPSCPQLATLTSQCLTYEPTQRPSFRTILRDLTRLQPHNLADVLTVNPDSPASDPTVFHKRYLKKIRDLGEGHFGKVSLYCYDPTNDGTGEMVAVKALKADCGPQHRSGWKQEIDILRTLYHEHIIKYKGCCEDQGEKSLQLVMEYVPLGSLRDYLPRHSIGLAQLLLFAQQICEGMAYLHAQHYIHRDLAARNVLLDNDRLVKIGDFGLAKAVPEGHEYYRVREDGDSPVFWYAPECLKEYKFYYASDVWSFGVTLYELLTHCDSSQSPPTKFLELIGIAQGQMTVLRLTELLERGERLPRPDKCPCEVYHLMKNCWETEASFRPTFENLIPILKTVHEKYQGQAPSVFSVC
In short: as §1

[5] = tested on: STAT3 phosphorylation by IL-6 in TF-1 cells; experiment: JAK cellular assay: STAT3 phosphorylation by IL-6 in TF-1 cells (HTRF); type: cell-based; details: Homo sapiens, TF-1, TF-1 cells, IL-6 30 ng/ml, pSTAT3 HTRF; read-out: Cell Based Assay (μM) TF-1/IL-6/pSTAT3
In short: (§2)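 Phospho-STAT3 (IL-6, 30 ng/ml) and phospho-STAT5 (GMCSF, 5 ng/ml) read by HTRF in lysates after 20 min cytokine exposure, minus unstimulated-cell background. Cells were serum-starved overnight, plated at 120,000/well, given compound 30 min at 37 °C beforehand; DMSO 0.2% final.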

[6] = tested on: STAT5 phosphorylation by GMCSF in TF-1 cells; experiment: JAK cellular assay: STAT5 phosphorylation by GMCSF in TF-1 cells (HTRF); type: cell-based; details: Homo sapiens; TF-1 cells, GMCSF 5 ng/ml, pSTAT5 HTRF; read-out: Cell Based Assay (μM) TF-1/GMCSF/pSTAT5
In short: as §2

T1 sequence (P23458 whole entry): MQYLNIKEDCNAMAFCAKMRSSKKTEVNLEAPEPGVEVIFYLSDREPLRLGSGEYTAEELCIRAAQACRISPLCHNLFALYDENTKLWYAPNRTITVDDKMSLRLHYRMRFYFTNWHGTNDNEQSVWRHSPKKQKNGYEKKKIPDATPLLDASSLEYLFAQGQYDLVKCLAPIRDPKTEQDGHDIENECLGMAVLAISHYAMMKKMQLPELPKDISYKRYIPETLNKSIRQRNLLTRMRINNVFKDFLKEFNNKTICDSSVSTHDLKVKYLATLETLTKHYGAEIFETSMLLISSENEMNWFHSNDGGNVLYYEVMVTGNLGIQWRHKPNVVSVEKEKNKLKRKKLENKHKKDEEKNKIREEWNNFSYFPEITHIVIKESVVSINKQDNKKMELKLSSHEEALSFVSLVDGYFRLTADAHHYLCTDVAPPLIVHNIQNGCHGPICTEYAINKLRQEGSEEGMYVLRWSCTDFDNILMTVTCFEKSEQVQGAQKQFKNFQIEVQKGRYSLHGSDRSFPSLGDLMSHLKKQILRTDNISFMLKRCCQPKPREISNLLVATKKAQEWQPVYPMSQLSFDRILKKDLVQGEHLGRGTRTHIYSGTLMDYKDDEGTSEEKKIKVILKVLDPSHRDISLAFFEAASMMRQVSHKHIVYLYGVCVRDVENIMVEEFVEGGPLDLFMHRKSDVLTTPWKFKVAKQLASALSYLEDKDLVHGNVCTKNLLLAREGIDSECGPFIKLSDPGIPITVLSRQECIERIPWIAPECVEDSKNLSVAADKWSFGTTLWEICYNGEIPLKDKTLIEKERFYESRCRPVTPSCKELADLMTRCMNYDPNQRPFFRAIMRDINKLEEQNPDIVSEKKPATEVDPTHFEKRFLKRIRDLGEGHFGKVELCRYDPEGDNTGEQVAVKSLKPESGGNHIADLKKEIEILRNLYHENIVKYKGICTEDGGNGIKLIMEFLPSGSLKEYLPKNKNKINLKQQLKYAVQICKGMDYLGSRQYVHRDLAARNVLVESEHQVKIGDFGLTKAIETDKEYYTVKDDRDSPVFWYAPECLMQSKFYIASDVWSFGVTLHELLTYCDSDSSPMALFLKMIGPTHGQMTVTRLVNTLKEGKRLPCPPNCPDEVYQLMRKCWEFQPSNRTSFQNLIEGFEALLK

SMILES | IC50 [1] | IC50 [2] | IC50 [3] | IC50 [4] | IC50 [5] | IC50 [6]
CS(=O)(=O)CCC(C#N)c1ccc(-n2cc(-c3ccnc4[nH]cnc34)cn2)nc1 (stereo not drawn) [Example 1116, 2-(6-(4-(3H-imidazo[4,5-b]pyridin-7-yl)-1H-pyrazol-1-yl)pyridin-3-yl)-4-(methylsulfonyl) butanenitrile] | > 0.1 µM | > 0.5 µM | > 0.1 µM | > 1 µM | > 1 µM | > 10 µM
N#CCc1ccnc(-n2cc(-c3ccnc4[nH]cnc34)cn2)c1 [Example 1118, 2-(2-(4-(3H-imidazo[4,5-b]pyridin-7-yl)-1H-pyrazol-1-yl)pyridin-4-yl)acetonitrile] | > 0.5 µM | > 0.5 µM | > 0.5 µM | > 1 µM | > 10 µM | > 10 µM
OC(c1ccc(-n2cc(-c3ccnc4[nH]cnc34)cn2)nc1)(C1CCCCC1)C(F)(F)F (stereo not drawn) [Example 1130, 1-(6-(4-(3H-imidazo[4,5-b]pyridin-7-yl)-1H-pyrazol-1-yl)pyridin-3-yl)-1-cyclohexyl-2,2,2-trifluoroethanol] | > 0.1 µM | > 0.1 µM | > 0.1 µM | > 1 µM | > 1 µM | > 10 µM
OC(c1ccc(-n2cc(-c3ccnc4[nH]cnc34)cn2)nc1)(C1CCNCC1)C(F)(F)F (stereo not drawn) [Example 1135, 1-(6-(4-(3H-imidazo[4,5-b]pyridin-7-yl)-1H-pyrazol-1-yl)pyridin-3-yl)-2,2,2-trifluoro-1-(piperidin-4-yl)ethan-1-ol] | < 0.1 µM | < 0.1 µM | < 0.1 µM | < 0.1 µM | > 1 µM | > 10 µM
CC(c1ccc(-n2cc(-c3ccnc4[nH]cnc34)cn2)nc1)S(C)(=O)=O (stereo not drawn) [Example 1158, 7-(1-(5-(1-(methylsulfonyl)ethyl)pyridin-2-yl)-1H-pyrazol-4-yl)-3H-imidazo[4,5-b]pyridine] | < 0.1 µM | > 0.1 µM | > 0.1 µM | > 1 µM | > 1 µM | > 1 µM
O=C(NCC(F)(F)F)C(c1ccc(-n2cc(-c3ccnc4[nH]cnc34)cn2)nc1)C1CC1 (stereo not drawn) [Example 1167, 2-(6-(4-(3H-imidazo[4,5-b]pyridin-7-yl)-1H-pyrazol-1-yl)pyridin-3-yl)-2-cyclopropyl-N-(2,2,2-trifluoroethyl)acetamide] | 0.096 µM | 0.3 µM | 0.173 µM | > 10 µM | 10 µM | > 10 µM
N#CC1CCN(C(=O)n2cc(-c3ccnc4[nH]cnc34)cn2)C1 (stereo not drawn) [Example 1177, 1-(4-(3H-imidazo[4,5-b]pyridin-7-yl)-1H-pyrazole-1-carbonyl)pyrrolidine-3-carbonitrile] | > 1 µM | < 0.5 µM | > 1 µM | > 0.5 µM | > 10 µM | > 10 µM
N#CCC(C1CCCC1)n1cc(-c2ccnc3[nH]c(-c4ccccc4)nc23)cn1 (stereo not drawn) [Example 1180, 3-cyclopentyl-3-(4-(2-phenyl-3H-imidazo[4,5-b]pyridin-7-yl)-1H-pyrazol-1-yl)propanenitrile] | < 1 µM | < 1 µM | < 1 µM | < 1 µM | > 1 µM | > 1 µM

Results, then the molecule that gave them:

IC50 [1] | IC50 [2] | IC50 [3] | IC50 [4] | IC50 [5] | IC50 [6] | SMILES
> 0.05 µM | > 0.1 µM | > 0.1 µM | > 1 µM | > 1 µM | > 10 µM | FC(F)(F)C(Cl)c1ccc(-n2cc(-c3ccnc4[nH]cnc34)cn2)nc1 (stereo not drawn) [Example 1120, 7-(1-(5-(1-chloro-2,2,2-trifluoroethyl)pyridin-2-yl)-1H-pyrazol-4-yl)-3H-imidazo[4,5-b]pyridine]
> 0.1 µM | > 0.5 µM | > 0.1 µM | > 1 µM | > 1 µM | 10 µM | N#CCC(c1ccc(-n2cc(-c3ccnc4[nH]cnc34)cn2)nc1)C(F)(F)F (stereo not drawn) [Example 1123, 3-(6-(4-(3H-imidazo[4,5-b]pyridin-7-yl)-1H-pyrazol-1-yl)pyridin-3-yl)-4,4,4-trifluorobutanenitrile]
> 0.5 µM | > 1 µM | > 1 µM | > 1 µM | > 1 µM | > 10 µM | COC(c1ccc(-n2cc(-c3ccnc4[nH]cnc34)cn2)nc1)(C1CC1)C(F)(F)F (stereo not drawn) [Example 1127, 7-(1-(5-(1-cyclopropyl-2,2,2-trifluoro-1-methoxyethyl)pyridin-2-yl)-1H-pyrazol-4-yl)-3H-imidazo[4,5-b]pyridine]
< 0.1 µM | > 0.5 µM | > 0.5 µM | > 1 µM | > 1 µM | > 10 µM | CC(F)(c1ccc(-n2cc(-c3ccnc4[nH]cnc34)cn2)nc1)C(F)(F)F (stereo not drawn) [Example 1128, 7-(1-(5-(1,1,1,2-tetrafluoropropan-2-yl)pyridin-2-yl)-1H-pyrazol-4-yl)-3H-imidazo[4,5-b]pyridine]
< 0.1 µM | > 0.1 µM | > 0.1 µM | > 1 µM | > 1 µM | > 10 µM | CS(=O)(=O)CC(c1ccc(-n2cc(-c3ccnc4[nH]cnc34)cn2)nc1)C(F)(F)F (stereo not drawn) [Example 1138, 7-(1-(5-(1,1,1-trifluoro-3-(methylsulfonyl)propan-2-yl)pyridin-2-yl)-1H-pyrazol-4-yl)-3H-imidazo[4,5-b]pyridine]
< 0.1 µM | < 0.1 µM | < 0.1 µM | > 1 µM | < 1 µM | > 10 µM | NS(=O)(=O)CCC(c1ccc(-n2cc(-c3ccnc4[nH]cnc34)cn2)nc1)C(F)(F)F (stereo not drawn) [Example 1141, 3-(6-(4-(3H-imidazo[4,5-b]pyridin-7-yl)-1H-pyrazol-1-yl)pyridin-3-yl)-4,4,4-trifluorobutane-1-sulfonamide]
< 0.1 µM | < 0.1 µM | < 0.1 µM | > 0.5 µM | < 1 µM | > 10 µM | N#CCOC(c1ccc(-n2cc(-c3ccnc4[nH]cnc34)cn2)nc1)C(F)(F)F (stereo not drawn) [Example 1157, 2-(1-(6-(4-(3H-imidazo[4,5-b]pyridin-7-yl)-1H-pyrazol-1-yl)pyridin-3-yl)-2,2,2-trifluoroethoxy)acetonitrile]
> 0.1 µM | > 0.1 µM | > 0.05 µM | > 1 µM | > 10 µM | > 10 µM | OC(c1cccc(-n2cc(-c3ccnc4[nH]cnc34)cn2)n1)C(F)(F)F (stereo not drawn) [Example 1170, 1-(6-(4-(3H-imidazo[4,5-b]pyridin-7-yl)-1H-pyrazol-1-yl)pyridin-2-yl)-2,2,2-trifluoroethanol]
> 1 µM | > 1 µM | > 1 µM | > 1 µM | > 10 µM | > 10 µM | COC(c1cccc(-n2cc(-c3ccnc4[nH]cnc34)cn2)n1)C(F)(F)F (stereo not drawn) [Example 1171, 7-(1-(6-(2,2,2-trifluoro-1-methoxyethyl)pyridin-2-yl)-1H-pyrazol-4-yl)-3H-imidazo[4,5-b]pyridine]
< 0.1 µM | < 0.1 µM | < 0.1 µM | > 1 µM | 10 µM | > 10 µM | OC(c1ccc(-n2cc(-c3ccnc4[nH]cnc34)cn2)cn1)C(F)(F)F (stereo not drawn) [Example 1173, 1-(5-(4-(3H-imidazo[4,5-b]pyridin-7-yl)-1H-pyrazol-1-yl)pyridin-2-yl)-2,2,2-trifluoroethanol]
